Reference: patent publication US20260285850A1, “SUBSTITUTED OXAZOLIDINONES AND IMIDAZOLINONES AS HERBICIDES” (FMC CORPORATION, priority 2023, published 2026)

Tests used:
Type in all cases: in vivo
[1] = tested on: barnyardgrass (Echinochloa crus-galli); assay: Test A preemergence soil spray, visual injury rating 0-100; settings: 10 days
Procedure, shortened: (§1)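 Loam-sand pots got test material in surfactant-containing solvent, either as a directed soil spray before emergence or on plants at the one- to two-leaf stage. Visual injury (0-100) was read after ten greenhouse days.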

[2] = tested on: blackgrass (Alopecurus myosuroides); assay: as above; settings: 10 days
Procedure, shortened: as §1

[3] = tested on: corn (Zea mays); assay: as above; settings: 10 days
Procedure, shortened: as §1

[4] = tested on: green foxtail (Setaria viridis); assay: as above; settings: 10 days
Procedure, shortened: as §1

[5] = tested on: kochia (Bassia scoparia); assay: as above; settings: 10 days
Procedure, shortened: as §1

[6] = tested on: oat, wild (wild oat, Avena fatua); assay: as above; settings: 10 days
Procedure, shortened: as §1

[7] = tested on: palmer (palmer amaranth, palmer pigweed, Amaranthus palmeri); assay: as above; settings: 10 days
Procedure, shortened: as §1

[8] = tested on: ragweed (common ragweed, Ambrosia artemisiifolia); assay: as above; settings: 10 days
Procedure, shortened: as §1

[9] = tested on: ryegrass, Italian (italian ryegrass, Lolium multiflorum); assay: as above; settings: 10 days
Procedure, shortened: as §1

[10] = tested on: soybean (Glycine max); assay: as above; settings: 10 days
Procedure, shortened: as §1

[11] = tested on: wheat (Triticum aestivum); assay: as above; settings: 10 days
Procedure, shortened: as §1

[12] = tested on: barnyardgrass (Echinochloa crus-galli); assay: Test A postemergence application, visual injury rating 0-100
Procedure, shortened: as §1

[13] = tested on: blackgrass (Alopecurus myosuroides); assay: as above
Procedure, shortened: as §1

[14] = tested on: corn (Zea mays); assay: as above
Procedure, shortened: as §1

[15] = tested on: galium (catchweed bedstraw, Galium aparine); assay: as above
Procedure, shortened: as §1

[16] = tested on: green foxtail (Setaria viridis); assay: as above
Procedure, shortened: as §1

[17] = tested on: horseweed (Erigeron canadensis); assay: as above
Procedure, shortened: as §1

[18] = tested on: kochia (Bassia scoparia); assay: as above
Procedure, shortened: as §1

[19] = tested on: oat, wild (wild oat, Avena fatua); assay: as above
Procedure, shortened: as §1

[20] = tested on: palmer (palmer amaranth, palmer pigweed, Amaranthus palmeri); assay: as above
Procedure, shortened: as §1

[21] = tested on: ragweed (common ragweed, Ambrosia artemisiifolia); assay: as above
Procedure, shortened: as §1

[22] = tested on: ryegrass, Italian (italian ryegrass, Lolium multiflorum); assay: as above
Procedure, shortened: as §1

[23] = tested on: soybean (Glycine max); assay: as above
Procedure, shortened: as §1

[24] = tested on: wheat (Triticum aestivum); assay: as above
Procedure, shortened: as §1

[25] = tested on: barnyardgrass (Echinochloa crusgalli); assay: Test B flooded paddy test, visual plant response rating 0-100; settings: 250 g ai/ha, Flood, applied to paddy water, evaluated after 13 days
Procedure, shortened: (§2)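 Visual evaluation after 13 days. Water-applied treatment, 3 cm flood depth held constant, plants at 2-leaf stage at treatment.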

[26] = tested on: ducksalad (Heteranthera limosa); assay: as above; settings: 250 g ai/ha, Flood, applied to paddy water, evaluated after 13 days
Procedure, shortened: as §2

[27] = tested on: rice (Oryza sativa); assay: as above; settings: 250 g ai/ha, Flood, applied to paddy water, evaluated after 13 days
Procedure, shortened: as §2

[28] = tested on: sedge, umbrella (small-flower umbrella sedge, Cyperus difformis); assay: as above; settings: 250 g ai/ha, Flood, applied to paddy water, evaluated after 13 days
Procedure, shortened: as §2

[29] = 62 g ai/ha, 0 = no effect, 100 = complete control
[30] = 62 g ai/ha, postemergence, 10 days, 0 = no effect, 100 = complete control
[31] = Postemergence, 16 g ai/ha, greenhouse 10 days, 0 no effect, 100 complete control

## CC1(C(=O)NC2CC=C(C(=O)O)C2)CN(c2cc(Cl)cc(Cl)c2)C(=O)O1 (stereo not shown) [Compound 158]
[1]; 16 g ai/ha, 0 to 100 scale
  Barnyardgrass plant response rating: 40
[1]; [29]
  Barnyardgrass plant response rating (0-100): 90
[2]; 16 g ai/ha, 0 to 100 scale
  Blackgrass plant response rating: 0
[2]; [29]
  Blackgrass plant response rating (0-100): 50
[3]; 16 g ai/ha, 0 to 100 scale
  Corn plant response rating: 0
[3]; [29]
  Corn plant response rating (0-100): 60
[4]; 16 g ai/ha, 0 to 100 scale
  Foxtail, Green plant response rating: 0
[4]; [29]
  Foxtail, Green plant response rating (0-100): 90
[5]; 16 g ai/ha, 0 to 100 scale
  Kochia plant response rating: 30
[5]; [29]
  Kochia plant response rating (0-100): 80
[6]; 16 g ai/ha, 0 to 100 scale
  Oat, Wild plant response rating: 10
[6]; [29]
  Oat, Wild plant response rating (0-100): 30
[7]; 16 g ai/ha, 0 to 100 scale
  Pigweed, Palmer plant response rating: 50
[7]; [29]
  Pigweed, Palmer plant response rating (0-100): 90
[8]; 16 g ai/ha, 0 to 100 scale
  Ragweed plant response rating: 0
[8]; [29]
  Ragweed plant response rating (0-100): 70
[9]; 16 g ai/ha, 0 to 100 scale
  Ryegrass, Italian plant response rating: 0
[9]; [29]
  Ryegrass, Italian plant response rating (0-100): 70
[10]; 16 g ai/ha, 0 to 100 scale
  Soybean plant response rating: 0
[10]; [29]
  Soybean plant response rating (0-100): 20
[11]; 16 g ai/ha, 0 to 100 scale
  Wheat plant response rating: 40
[11]; [29]
  Wheat plant response rating (0-100): 80
[12]; [30]
  Barnyardgrass plant response rating (0-100): 100
[12]; [31]
  Barnyardgrass plant response rating (0 to 100 scale): 90
[13]; [30]
  Blackgrass plant response rating (0-100): 100
[13]; [31]
  Blackgrass plant response rating (0 to 100 scale): 80
[14]; [30]
  Corn plant response rating (0-100): 100
[14]; [31]
  Corn plant response rating (0 to 100 scale): 100
[15]; [30]
  Galium plant response rating (0-100): 90
[15]; [31]
  Galium plant response rating (0 to 100 scale): 90
[16]; [30]
  Foxtail, Green plant response rating (0-100): 90
[16]; [31]
  Foxtail, Green plant response rating (0 to 100 scale): 90
[17]; [30]
  Horseweed plant response rating (0-100): 70
[17]; [31]
  Horseweed plant response rating (0 to 100 scale): 30
[18]; [30]
  Kochia plant response rating (0-100): 90
[18]; [31]
  Kochia plant response rating (0 to 100 scale): 80
[19]; [30]
  Oat, Wild plant response rating (0-100): 90
[19]; [31]
  Oat, Wild plant response rating (0 to 100 scale): 20
[20]; [30]
  Pigweed, Palmer plant response rating (0-100): 90
[20]; [31]
  Pigweed, Palmer plant response rating (0 to 100 scale): 90
[21]; [30]
  Ragweed plant response rating (0-100): 60
[21]; [31]
  Ragweed plant response rating (0 to 100 scale): 50
[22]; [30]
  Ryegrass, Italian plant response rating (0-100): 80
[22]; [31]
  Ryegrass, Italian plant response rating (0 to 100 scale): 80
[23]; [30]
  Soybean plant response rating (0-100): 90
[23]; [31]
  Soybean plant response rating (0 to 100 scale): 60
[24]; [30]
  Wheat plant response rating (0-100): 80
[24]; [31]
  Wheat plant response rating (0 to 100 scale): 70
[25]
  Plant response rating, Barnyardgrass (0 to 100 scale, 0 is no effect and 100 is complete control): 90
[26]
  Plant response rating, Ducksalad (0 to 100 scale, 0 is no effect and 100 is complete control): 70
[27]
  Plant response rating, Rice (0 to 100 scale, 0 is no effect and 100 is complete control): 50
[28]
  Plant response rating, Sedge, Umbrella (0 to 100 scale, 0 is no effect and 100 is complete control): 98
